By IC50 is commonly meant the concentration that inhibits the measured activity by half. Low values mean greater potency, high ones weaker potency.

For one assay, the target named is T1, ALDH1A1 (Homo sapiens, UniProt P00352).
T1 construct: His-tag; made in house; host or cells: E. coli Rosetta (DE3)
T1 sequence (P00352 1-501): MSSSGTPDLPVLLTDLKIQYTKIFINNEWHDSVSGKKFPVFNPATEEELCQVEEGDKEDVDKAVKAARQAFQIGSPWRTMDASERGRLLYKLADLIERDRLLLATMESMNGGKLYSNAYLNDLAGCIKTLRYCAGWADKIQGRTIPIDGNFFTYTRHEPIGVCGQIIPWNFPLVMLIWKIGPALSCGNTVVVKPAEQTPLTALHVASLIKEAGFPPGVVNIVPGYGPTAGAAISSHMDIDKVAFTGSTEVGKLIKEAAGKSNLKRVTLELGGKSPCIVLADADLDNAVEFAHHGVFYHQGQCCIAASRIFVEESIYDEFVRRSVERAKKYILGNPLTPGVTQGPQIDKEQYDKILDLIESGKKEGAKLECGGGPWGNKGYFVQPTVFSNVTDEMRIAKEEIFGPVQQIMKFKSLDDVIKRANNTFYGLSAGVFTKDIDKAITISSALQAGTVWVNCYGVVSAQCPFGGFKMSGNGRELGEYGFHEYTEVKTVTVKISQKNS
The assay can be described thus: Selectivity biochemical assay, NAD(P)H-Glo Detection System. An excerpt: (§1) Cloning: Open reading frames corresponding to the protein coding sequences of full length human ALDH1A1 (Uniprot ID P00352), ALDH1A2 (094788) and ALDH1A3 (P47895) were polymerase chain reaction (PCR) amplified from human cDNA and inserted into the multi-cloning sites of the commercially available (Novagen) E. coli expression vectors pET47b (ALDH1A1, EcoRI restriction site; ALDH1A2, BamHI and EcoRI sites) or pET28a (ALDH1A3, NdeI and BamHI sites), using standard molecular genetic techniques. Recombinant DNA products were sequence verified prior to use in expression studies.
(§2) Expression: Expression constructs were transformed into the E. coli strain Rosetta (DE3) (Merck) and individual colonies used to inoculate 10 mL lysogen broth (LB) medium supplemented with kanamycin and chloramphenicol at 50 μg/mL and 34 μg/mL, respectively. Cultures were grown to saturation overnight at 37° C., prior to being used to sub-inoculate fresh 1 L LB medium cultures (plus antibiotics, as before). 1 L cultures were grown at 37° C., 200 rpm, throughout the day until the optical density at 600 nm (OD600) reached ˜0.8, at which point growth temperature was reduced to 18° C. and 1 mM isopropyl β-d-1-thiogalacto pyranoside (IPTG) added to induce protein expression.
(§3) Cultures were left overnight (at least 16 h) under these conditions and the following day harvested by centrifugation (4000 G, 10 minutes). Culture supernatant was discarded and cell pellets stored at −80° C. until further processing.
(§4) Purification: Cell pellets were thawed on ice, re-suspended in Ni Affinity Buffer A (20 mM HEPES pH 7.5, 300 mM NaCl, 20 mM imidazole, 1 mM tris(2-carboxyethyl)phosphine (TCEP)) with protease inhibitors (cOmplete Ultra protease inhibitor, Roche), and lysed by sonication. Lysates were clarified by centrifugation at 18,000 G, 4° C., for 40 minutes, and loaded directly onto a pre-equilibrated (Buffer A) 5 mL HisTrap Fast Flow column (GE Healthcare) by way of an AKTA Fast Protein Liquid Chromatography (FPLC) system. The column was sequentially treated with 6 column volumes (CV) 100% Buffer A, 8 CV of 90% Buffer A:10% Buffer B (20 mM 4-(2-hydroxyethyl)-1-piperazineethanesulfonic acid (HEPES) pH 7.5, 300 mM NaCl, 500 mM imidazole, 1 mM TCEP) and finally a linear gradient from 10-70% Buffer B over 8 CV to elute recombinant His-tagged protein. Relevant fractions (as measured by 280 nm absorbance) collected during elution were pooled and subjected to further purification by size exclusion chromatography (Superdex 200 26/600, GE Healthcare, running buffer 20 mM 2-(carbamoylmethylamino)ethanesulfonic acid (ACES) pH 7.5, 1 mM TCEP). Relevant fractions from this step were pooled, aliquoted, and stored at −80° C. until required for compound profiling assays.
(§5) Materials: ALDH2 was purchased from Abnova. Tris(hydroxymethyl)aminomethane (Tris) was purchased from MP Biomedicals. TCEP, ethylenediaminetetraacetic acid (EDTA), propionaldehyde, DMSO and Tween-20 were purchased from Sigma. Nicotinamide adenine dinucleotide (NAD) was obtained from Abcam. The NAD(P)H-Glo™ Detection System was purchased from Promega. White, non-binding surface, 384 well plates were supplied by Corning (#3574).
(§6) Method: Inhibition of ALDH1A3 was assessed using the NAD(P)H-Glo™ Detection System (Cat. No. G9062) from Promega. This assay detects the production of NADH from NAD by ALDH1A3 via the coupled enzymatic conversion of a proluciferin reductase substrate to generate a luminescent signal. Inhibition of ALDH1A3 by small molecule inhibitors will result in reduction or abrogation of luminescence signal increase above background. Inhibition of ALDH1A1, ALDH1A2 and ALDH2 (selectivity assays) were assessed using the same assay.
(§7) Compounds were dosed into Corning 384 well assay plates using an Echo acoustic dispenser to give 10 point curves in a 3-fold dilution series. Compounds were dispensed from a 20 mM DMSO stock and initially screened at a top concentration of 20 μM (ALDH1A3) or 250 μM (ALDH1A1, ALDH1A2 & ALDH2). […]

A further assay addresses T2, ALDH1A2 (Homo sapiens, UniProt O94788).
T2 construct: His-tag; made in house; host or cells: E. coli Rosetta (DE3)
T2 sequence (O94788 1-518): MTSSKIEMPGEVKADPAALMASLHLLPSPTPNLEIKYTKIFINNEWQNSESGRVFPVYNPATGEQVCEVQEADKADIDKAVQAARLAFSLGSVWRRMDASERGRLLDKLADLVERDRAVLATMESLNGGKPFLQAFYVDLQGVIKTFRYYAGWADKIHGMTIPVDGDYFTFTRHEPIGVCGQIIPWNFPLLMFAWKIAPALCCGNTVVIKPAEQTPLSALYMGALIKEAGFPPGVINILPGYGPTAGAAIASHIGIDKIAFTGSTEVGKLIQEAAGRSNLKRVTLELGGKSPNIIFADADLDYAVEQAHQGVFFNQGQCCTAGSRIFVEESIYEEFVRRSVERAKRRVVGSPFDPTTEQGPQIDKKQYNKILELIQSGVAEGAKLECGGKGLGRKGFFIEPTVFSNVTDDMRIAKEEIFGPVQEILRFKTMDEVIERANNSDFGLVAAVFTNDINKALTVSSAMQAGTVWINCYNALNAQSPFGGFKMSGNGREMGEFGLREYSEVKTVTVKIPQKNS
The description is as above.
Description: as §1, §2, §3, §4, §5, §6, §7

Some results are limits rather than exact numbers.

For the compound `O=C1CCc2cc(OCCN3CC(O)CC3c3cccc(F)c3)ccc2N1` (mixture of isomers) [ALDHI-2035, 6-[2-[2-(3-fluorophenyl)-4-hydroxy-pyrrolidin-1-yl]ethoxy]-3,4-dihydro-1H-quinolin-2-one], the IC50 against ALDH1A1 lay within 10 to 100 µM; against ALDH1A2, 0.1 to 1 µM. In the same order, the values of `CC1CN(CCOc2ccc3c(c2)CCC(=O)N3)C(c2ccccc2)CO1` (mixture of isomers) [ALDHI-2042, 6-[2-(2-methyl-5-phenyl-morpholin-4-yl)ethoxy]-3,4-dihydro-1H-quinolin-2-one] are 10 to 100 µM and 0.1 to 1 µM. For `O=C1CCc2cc(NC(=O)c3sc(N4CCOCC4)nc3-c3cccc(F)c3)ccc2N1` [ALDHI-1001, 4-(3-fluorophenyl)-2-morpholino-N-(2-oxo-3,4-dihydro-1H-quinolin-6-yl)thiazole-5-carboxamide], the half-inhibitory concentration (IC50) at ALDH1A1 and against ALDH1A2 was at least 100 µM in each case. Take `CN(C)c1nc(-c2cccc(F)c2)c(C(=O)Nc2ccc3c(c2)CCC(=O)N3)s1` [ALDHI-1002, 2-(dimethylamino)-4-(3-fluorophenyl)-N-(2-oxo-3,4-dihydro-1H-quinolin-6-yl)thiazole-5-carboxamide]: the IC50 is at least 100 µM against ALDH1A1 and 1 to 10 µM on ALDH1A2. In the same order, the values of `O=C1CCc2cc(NC(=O)c3scnc3-c3cccc(F)c3)ccc2N1` [ALDHI-1003, 4-(3-fluorophenyl)-N-(2-oxo-3,4-dihydro-1H-quinolin-6-yl)thiazole-5-carboxamide] are at least 100 µM and 1 to 10 µM. For `O=C1CCc2cc(NC(=O)c3sc(N4CC(O)C4)nc3-c3cccc(F)c3)ccc2N1` [ALDHI-1004, 4-(3-fluorophenyl)-2-(3-hydroxyazetidin-1-yl)-N-(2-oxo-3,4-dihydro-1H-quinolin-6-yl)thiazole-5-carboxamide] the same measures were at least 100 µM and at least 100 µM. For `O=C1CCc2cc(NC(=O)c3sc(N4CCNCC4)nc3-c3cccc(F)c3)ccc2N1` [ALDHI-1005, 4-(3-fluorophenyl)-N-(2-oxo-3,4-dihydro-1H-quinolin-6-yl)-2-piperazin-1-yl-thiazole-5-carboxamide] the same measures were at least 100 µM and 10 to 100 µM. Compound `O=C1CCc2cc(NC(=O)c3c[nH]nc3-c3cccc(F)c3)ccc2N1` [ALDHI-1006, 3-(3-fluorophenyl)-N-(2-oxo-1,2,3,4-tetrahydroquinolin-6-yl)-1H-pyrazole-4-carboxamide] displayed an IC50 against ALDH1A1 of at least 100 µM. As for `O=C1CCc2cc(NC(=O)c3ccccc3-c3cccc(F)c3)ccc2N1` [ALDHI-1007, 3′-fluoro-N-(2-oxo-1,2,3,4-tetrahydroquinolin-6-yl)-[1,1′-biphenyl]-2-carboxamide], the results for the IC50 against ALDH1A1 and against ALDH1A2 were at least 100 µM and 1 to 10 µM, respectively. As to `Cc1noc(-c2ccccc2C(=O)Nc2ccc3c(c2)CCC(=O)N3)n1` [ALDHI-1008, 2-(3-methyl-1,2,4-oxadiazol-5-yl)-N-(2-oxo-1,2,3,4-tetrahydroquinolin-6-yl)benzamide], the IC50 at ALDH1A1 was at least 100 µM; at ALDH1A2 it was 1 to 10 µM. As for `O=C1CCc2cc(NC(=O)c3ncsc3-c3cccnc3)ccc2N1` [ALDHI-1010, N-(2-oxo-3,4-dihydro-1H-quinolin-6-yl)-5-(3-pyridyl)thiazole-4-carboxamide], the concentration for half-maximal inhibition (IC50) at ALDH1A1 is at least 100 µM; at ALDH1A2, 1 to 10 µM. In the same order, the values of `O=C1CCc2cc(NC(=O)c3ncsc3-c3ccsc3)ccc2N1` [ALDHI-1011, N-(2-oxo-3,4-dihydro-1H-quinolin-6-yl)-5-(3-thienyl)thiazole-4-carboxamide] are at least 100 µM and 1 to 10 µM. On ALDH1A1, `O=C1CCc2cc(NC(=O)c3scnc3-c3ccccc3Cl)ccc2N1` [ALDHI-1012, 4-(2-chlorophenyl)-N-(2-oxo-3,4-dihydro-1H-quinolin-6-yl)thiazole-5-carboxamide] gave an IC50 of 10 to 100 µM.

Take `Cc1cccc(-c2ncsc2C(=O)Nc2ccc3c(c2)CCC(=O)N3)c1` [ALDHI-1013, 4-(m-tolyl)-N-(2-oxo-3,4-dihydro-1H-quinolin-6-yl)thiazole-5-carboxamide]: the IC50 against ALDH1A1 is at least 100 µM; against ALDH1A2 it was 1 to 10 µM. For `O=C1CCc2cc(NC(=O)c3ncsc3-c3cccc(F)c3)ccc2N1` [ALDHI-1014, 5-(3-fluorophenyl)-N-(2-oxo-3,4-dihydro-1H-quinolin-6-yl)thiazole-4-carboxamide] the same measures were at least 100 µM and 10 to 100 µM. For `O=C1COc2cc(NC(=O)c3scnc3-c3cccc(F)c3)ccc2N1` [ALDHI-1016, 4-(3-fluorophenyl)-N-(3-oxo-4H-1,4-benzoxazin-7-yl)thiazole-5-carboxamide] the same measures were at least 100 µM and 1 to 10 µM.

On to `O=C1CCc2cc(NC(=O)c3scnc3-c3ccc(F)cc3)ccc2N1` [ALDHI-1017, 4-(4-fluorophenyl)-N-(2-oxo-1,2,3,4-tetrahydroquinolin-6-yl)thiazole-5-carboxamide], for which the IC50 is at least 100 µM against ALDH1A1 and 1 to 10 µM on ALDH1A2. Turning to `O=C1CCc2cc(NC(=O)c3cncnc3-c3cccc(F)c3)ccc2N1` [ALDHI-1018, 4-(3-fluorophenyl)-N-(2-oxo-3,4-dihydro-1H-quinolin-6-yl)pyrimidine-5-carboxamide], the IC50 against ALDH1A1 is at least 100 µM. Take `O=C1CCc2cc(NC(=O)c3ocnc3-c3cccc(F)c3)ccc2N1` [ALDHI-1019, 4-(3-fluorophenyl)-N-(2-oxo-3,4-dihydro-1H-quinolin-6-yl)oxazole-5-carboxamide]: the IC50 against ALDH1A1 and on ALDH1A2 was at least 100 µM each time. On to `O=C1CCc2cc(NC(=O)c3scnc3-c3ccccc3F)ccc2N1` [ALDHI-1021, 4-(2-fluorophenyl)-N-(2-oxo-3,4-dihydro-1H-quinolin-6-yl)thiazole-5-carboxamide], for which the concentration for half-maximal inhibition (IC50) was at least 100 µM against ALDH1A1 and 1 to 10 µM at ALDH1A2.

The values are drawn from patent US20240174634A1, “Aldehyde Dehydrogenase Inhibitors and Their Therapeutic Use” (priority 2020, published 2024).
